Publication PMC10786919, “Design-rules for stapled peptides with in vivo activity and their application to Mdm2/X antagonists” (Nature Communications, 2024)
In brackets after ≈: the same amount, converted by molar mass. Like-named read-outs stand apart in the source and are kept apart here. Positions of bridges follow the written chain, without caps; N, C: chain ends. Non-standard residues stand in square brackets, D forms with d. Residues, ends and D or L forms follow the SMILES beside them. Lys(N3) = [N-]=[N+]=NCCCC[C@H](N)C(=O)O; R8 = C=CCCCCCC[C@@](C)(N)C(=O)O; Cba = N[C@@H](CC1CCC1)C(=O)O; S5 = C=CCCC[C@](C)(N)C(=O)O; βAla = NCCC(=O)O

What was measured:
[1] = Lactate dehydrogenase (LDH) release assay; format: cell-based
How it was run: (§1)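 Membrane damage measured as lactate dehydrogenase release (CytoTox-ONE kit) from p53-responsive β-lactamase reporter HCT116 cells plated at 8000 per well. Final DMSO 0.5%; geometric mean reported from a minimum of three biological replicates.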

[2] = Experimental LogD (partition coefficient); settings: for logD: not stated, Partition Coeff LogD
[3] = Solubility assay (kinetic solubility, PBS pH 7); format: physicochemical; settings: for solubility kinetic: read-out: Solubility
How it was run: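 Std: 10 mM stock → 100 µM in ACN/MeOH/DMSO (10:80:10). Sol. [µM] = (sample peak area / std peak area) × std conc.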

[4] = physchem
[5] = in vitro
How it was run: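 Azido-peptide permeability was read as loss of NanoBRET signal (donor 450 nm, acceptor 610 nm) after adding NanoBret618-azide at 10 μM final.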

[6] = test system: HCT116 cells; experiment: Lactate dehydrogenase (LDH) release assay; format: cell-based
How it was run: as §1

[7] = pH 7, aqueous buffer, kinetic from dmso stock, pH 7, PBS
[8] = Nanoclick permeability assay EC50
[9] = 0% FBS 4Hr, read-out: LDH: Cytotoxicity assay EC50
[10] = 10% FBS 4Hr, read-out: LDH: Cytotoxicity assay EC50

| SMILES | EC50 ([1]; LDH: Cytotoxicity assay EC50) [µM] | logD [2] | solubility kinetic [3, 7] [µM] | EPSA [4] [A^2] | cell entry EC50 [5, 8] [µM] | EC50 [1, 9] [µM] | LDH: Cytotoxicity assay % Effect ([6]; 0% FBS 4Hr) [%] | LDH: Cytotoxicity assay % Effect ([6]; 0% FBS 16Hr) [%] | Partition Coeff LogD [2] | Solubility ([3]; pH 7, PBS) | EC50 [1, 10] [µM] | LDH: Cytotoxicity assay % Effect ([6]; 10% FBS 4Hr) [%] | solubility kinetic [3] [µM] | cell entry EC50 [5] [µM] | Solubility [3] | LDH: Cytotoxicity assay % Effect [6] [%] |
| --- | --- | --- | --- | --- | --- | --- | --- | --- | --- | --- | --- | --- | --- | --- | --- | --- |
| CC(=O)N[C@@H](CCCCN=[N+]=[N-])C(=O)NCCC(=O)N[C@@H](CCCNC(=N)N)C(=O)N[C@H](C(=O)N[C@@H](Cc1ccccc1)C(=O)N[C@]1(C)CCCCCCC=CCCC[C@@](C)(C(=O)N[C@@H](CO)C(=O)N[C@@H](C)C(=O)N[C@@H](CC(C)C)C(N)=O)NC(=O)[C@H](CC2CCC2)NC(=O)[C@H](CCC(N)=O)NC(=O)[C@H](CC(C)C)NC(=O)[C@H](Cc2c[nH]c3ccccc23)NC(=O)[C@H](Cc2ccc(O)cc2)NC(=O)[C@H](CCC(=O)O)NC1=O)[C@@H](C)O [MP-541] (Ac-[Lys(N3)][βAla]RTF[R8]EYWLQ[Cba][S5]SAL-NH2; staple 6-13) | > 50.6 | 3.58 | 4 (≈ 8.39 µg/mL) | 224 | 0.21 | – | – | – | – | – | – | – | – | – | – | – |
| CC(=O)N[C@@H](CC(C)C)C(=O)N[C@H](C(=O)N[C@@H](Cc1ccccc1)C(=O)N[C@]1(C)CCCCCCC=CCCC[C@@](C)(C(=O)N[C@@H](Cc2c[nH]cn2)C(=O)N[C@@H](C)C(=O)N[C@@H](C)C(N)=O)NC(=O)[C@H](CC2CCC2)NC(=O)[C@H](CC(C)C)NC(=O)[C@H](CCC(N)=O)NC(=O)[C@H](Cc2c[nH]c3ccccc23)NC(=O)[C@H](Cc2ccc(O)cc2)NC(=O)[C@H](CCC(=O)O)NC1=O)[C@@H](C)O [MP-201, ATSP-7041 (S12H)] (Ac-LTF[R8]EYWQL[Cba][S5]HAA-NH2; staple 4-11) | – | 2.64 | 5 (≈ 9.19 µg/mL) | 218 | – | > 50 | 10.92 | 6.91 | – | – | – | – | – | – | – | – |
| CC(=O)N[C@@H](CCCCN=[N+]=[N-])C(=O)NCCC(=O)N[C@@H](CCCNC(=N)N)C(=O)N[C@H](C(=O)N[C@@H](Cc1ccccc1)C(=O)N[C@]1(C)CCCCCCC=CCCC[C@@](C)(C(=O)N[C@@H](CCCCN)C(=O)N[C@@H](C)C(=O)N[C@@H](C)C(N)=O)NC(=O)[C@H](CC2CCC2)NC(=O)[C@H](CCCNC(=N)N)NC(=O)[C@H](C)NC(=O)[C@H](Cc2c[nH]c3ccccc23)NC(=O)[C@H](Cc2ccc(O)cc2)NC(=O)[C@H](CCC(=O)O)NC1=O)[C@@H](C)O [MP-537] (Ac-[Lys(N3)][βAla]RTF[R8]EYWAR[Cba][S5]KAA-NH2; staple 6-13) | 7.29 | 2.48 | 140 (≈ 292 µg/mL) | 224 | 0.0879 | – | – | – | – | – | – | – | – | – | – | – |
| CC(=O)N[C@@H](CC(C)C)C(=O)N[C@@H](Cc1c[nH]cn1)C(=O)N[C@@H](Cc1ccccc1)C(=O)N[C@]1(C)CCCCCCC=CCCC[C@@](C)(C(=O)N[C@@H](CO)C(=O)N[C@@H](C)C(=O)N[C@@H](C)C(N)=O)NC(=O)[C@H](CC2CCC2)NC(=O)[C@H](CC(C)C)NC(=O)[C@H](CCC(N)=O)NC(=O)[C@H](Cc2c[nH]c3ccccc23)NC(=O)[C@H](Cc2ccc(O)cc2)NC(=O)[C@H](CCC(=O)O)NC1=O [MP-198, ATSP-7041 (T2H)] (Ac-LHF[R8]EYWQL[Cba][S5]SAA-NH2; staple 4-11) | – | 2.81 | 25 (≈ 45.6 µg/mL) | 209 | – | > 50 | 2.825 | -3.86 | – | – | – | – | – | – | – | – |
| CC(=O)N[C@@H](CC(C)C)C(=O)N[C@H](C(=O)N[C@@H](Cc1ccccc1)C(=O)N[C@]1(C)CCCCCCC=CCCC[C@@](C)(C(=O)N[C@@H](CO)C(=O)N[C@@H](C)C(=O)N[C@@H](C)C(N)=O)NC(=O)[C@H](CC2CCC2)NC(=O)[C@H](CC(C)C)NC(=O)[C@H](CCC(N)=O)NC(=O)[C@H](Cc2c[nH]c3ccccc23)NC(=O)[C@H](Cc2ccc(O)cc2)NC(=O)[C@H](Cc2c[nH]cn2)NC1=O)[C@@H](C)O [MP-199, ATSP-7041 (E5H)] (Ac-LTF[R8]HYWQL[Cba][S5]SAA-NH2; staple 4-11) | – | 3.25 | 5 (≈ 8.98 µg/mL) | 201 | – | > 50 | 4.035 | 24.3 | – | – | – | – | – | – | – | – |
| CC(=O)N[C@@H](CCCCN=[N+]=[N-])C(=O)NCCC(=O)NC(C)(C)C(=O)N[C@H](C(=O)N[C@@H](Cc1ccccc1)C(=O)N[C@]1(C)CCCCCCC=CCCC[C@@](C)(C(=O)N[C@@H](CO)C(=O)N[C@@H](C)C(=O)N[C@@H](C)C(N)=O)NC(=O)[C@H](CC2CCC2)NC(=O)[C@H](CCC(N)=O)NC(=O)[C@H](C)NC(=O)[C@H](Cc2c[nH]c3ccccc23)NC(=O)[C@H](Cc2ccc(O)cc2)NC(=O)[C@H](CCC(=O)O)NC1=O)[C@@H](C)O [MP-168] | – | 2.81 | 79.5 (≈ 154 µg/mL) | 228 | – | > 50 | 4.017 | 11.59 | – | – | – | – | – | – | – | – |
| CC(=O)N[C@@H](CCCCN=[N+]=[N-])C(=O)NCCC(=O)N[C@@H](CC(C)C)C(=O)N[C@H](C(=O)N[C@@H](Cc1ccccc1)C(=O)N[C@]1(C)CCCCCCC=CCCC[C@@](C)(C(=O)N[C@@H](CO)C(=O)N[C@@H](C)C(=O)N[C@@H](C)C(N)=O)NC(=O)[C@H](CC2CCC2)NC(=O)C(C)(C)NC(=O)[C@H](C)NC(=O)[C@H](Cc2c[nH]c3ccccc23)NC(=O)[C@H](Cc2ccc(O)cc2)NC(=O)[C@H](CCC(=O)O)NC1=O)[C@@H](C)O [MP-171] | > 50 | 3 | 34 (≈ 65.5 µg/mL) | 222 | 0.195 | – | – | – | – | – | – | – | – | – | – | – |
| CC(=O)N[C@@H](CCCCN=[N+]=[N-])C(=O)NCCC(=O)N[C@@H](CC(C)C)C(=O)N[C@H](C(=O)N[C@@H](Cc1ccccc1)C(=O)N[C@]1(C)CCCCCCC=CCCC[C@@](C)(C(=O)N[C@@H](CO)C(=O)N[C@@H](Cc2ccccc2)C(=O)N[C@@H](Cc2ccccc2)C(N)=O)NC(=O)[C@H](CC2CCC2)NC(=O)[C@H](CCC(N)=O)NC(=O)[C@H](CO)NC(=O)[C@H](Cc2c[nH]c3ccccc23)NC(=O)[C@H](Cc2ccc(O)cc2)NC(=O)[C@H](CCC(=O)O)NC1=O)[C@@H](C)O [MP-545] (Ac-[Lys(N3)][βAla]LTF[R8]EYWSQ[Cba][S5]SFF-NH2; staple 6-13) | > 50.6 | – | – | 241 | 0.137 | – | – | – | Poorly Behaved | Poorly Behaved | – | – | – | – | – | – |
| CC(=O)N[C@@H](CCCCN=[N+]=[N-])C(=O)NCCC(=O)N[C@@H](CC(C)C)C(=O)N[C@H](C(=O)N[C@@H](Cc1ccccc1)C(=O)N[C@]1(C)CCCCCCC=CCCC[C@@](C)(C(=O)N[C@@H](C)C(=O)N[C@@H](C)C(=O)N[C@@H](C)C(N)=O)NC(=O)[C@H](CC2CCC2)NC(=O)[C@H](CCC(N)=O)NC(=O)[C@H](C)NC(=O)[C@H](Cc2c[nH]c3ccccc23)NC(=O)[C@H](Cc2ccc(O)cc2)NC(=O)[C@H](CCC(=O)O)NC1=O)[C@@H](C)O [MP-8956, AZIDE-ATSP-7041 (S12A)] (Ac-[Lys(N3)][βAla]LTF[R8]EYWAQ[Cba][S5]AAA-NH2; staple 6-13) | – | – | 108 (≈ 211 µg/mL) | 217 | – | > 50 | 18.05 | – | – | – | > 50 | 3.25 | 108 (≈ 211 µg/mL) | 0.411 | – | – |
| CC(=O)N[C@@H](CCCCN=[N+]=[N-])C(=O)NCCC(=O)N[C@@H](CC(C)C)C(=O)N[C@H](C(=O)N[C@@H](Cc1ccccc1)C(=O)N[C@]1(C)CCCCCCC=CCCC[C@@](C)(C(=O)NC(C)(C)C(=O)N[C@@H](C)C(=O)N[C@@H](C)C(N)=O)NC(=O)[C@H](CC2CCC2)NC(=O)[C@H](CCC(N)=O)NC(=O)[C@H](C)NC(=O)[C@H](Cc2c[nH]c3ccccc23)NC(=O)[C@H](Cc2ccc(O)cc2)NC(=O)[C@H](CCC(=O)O)NC1=O)[C@@H](C)O [MP-172] | – | 3.17 | 140 (≈ 276 µg/mL) | 225 | 0.123 | – | – | – | – | – | – | – | – | – | – | – |
| CC(=O)N[C@@H](CCCCN=[N+]=[N-])C(=O)NCCC(=O)N[C@@H](CC(C)C)C(=O)N[C@H](C(=O)N[C@@H](Cc1ccccc1)C(=O)N[C@]1(C)CCCCCCC=CCCC[C@@](C)(C(=O)N[C@@H](CO)C(=O)N[C@@H](C)C(=O)N[C@@H](C)C(N)=O)NC(=O)[C@H](CC2CCC2)NC(=O)[C@H](C)NC(=O)[C@H](C)NC(=O)[C@H](Cc2c[nH]c3ccccc23)NC(=O)[C@H](Cc2ccc(O)cc2)NC(=O)[C@H](C)NC1=O)[C@@H](C)O [MP-964, AZIDE-ATSP-7041 (E5A,Q9A)] (Ac-[Lys(N3)][βAla]LTF[R8]AYWAA[Cba][S5]SAA-NH2; staple 6-13) | – | 3.77 | – | 204 | – | > 50 | 6.293 | 4.09 | – | Poorly Behaved | > 50 | 2.881 | – | – | P.B. | – |
| CC(=O)N[C@@H](CC(C)C)C(=O)N[C@H](C(=O)N[C@@H](Cc1ccccc1)C(=O)N[C@]1(C)CCCCCCC=CCCC[C@@](C)(C(=O)N[C@@H](CO)C(=O)N[C@@H](C)C(=O)N[C@@H](C)C(N)=O)NC(=O)[C@H](CC2CCC2)NC(=O)[C@H](CC(C)C)NC(=O)[C@H](CCC(N)=O)NC(=O)[C@H](Cc2c[nH]c3ccccc23)NC(=O)[C@H](Cc2ccc(O)cc2)NC(=O)[C@H](CCCNC(=N)N)NC1=O)[C@@H](C)O [MP-193] (Ac-LTF[R8]RYWQL[Cba][S5]SAA-NH2; staple 4-11) | > 50 | 3.26 | 2 (≈ 3.63 µg/mL) | 207 | – | – | – | – | – | – | – | – | – | – | – | 58.33 |
